SMILES strings stand for the structures.

The test system of the test is Human bone marrow CD34+ cells. The experiment in a line: Megakaryocyte colony stimulating activity (megakaryocyte colony forming method). Conditions: 11 days. In kind it is cell-based. The method, then:
The action of the compounds of Synthetic Examples 1 to 43 of the present invention and Reference Synthetic Examples 29 and 30 on the proliferation, differentiation and maturation of megakaryocyte cells was measured by the megakaryocyte colony forming method using human bone marrow cells. Human bone marrow CD34^+ cells (Cambrex Bio Science Walkersville) were incubated on 2-well chamber slide for 11 days in a CO2 incubator (5% CO2, 37° C.) using MegaCult™-C (StemCell Technologies) containing 0.1% (v/v) of the compounds of Synthetic Examples dissolved in dimethyl sulfoxide. After dehydration and fixation, the cells were stained with an anti-glycoprotein IIb/IIIa antibody in accordance with the instruction by the manufacturer. The colonies consisting of at least 8 stained megakaryocyte cells in each well were counted under a microscope. The megakaryocyte colony counts in at least 2 wells were averaged.

Consider `C/C(=N\NC(=O)c1ccc(C(=O)O)cc1)c1csc(-c2ccc(Cl)c(Cl)c2)c1O` [Reference Synthetic Ex. 29, reference compound], for which the Megakaryocyte colony count is given as 2 (drug concentration 0.1 μg/mL) and 31 (drug concentration 1 μg/mL).

`C/C(=N\NC(=O)c1ccc(C(=O)O)s1)c1csc(-c2ccc(Cl)c(Cl)c2)c1O` [Reference Synthetic Ex. 30, reference compound]: the Megakaryocyte colony count was 12 (drug concentration 0.1 μg/mL), 34 (drug concentration 0.3 μg/mL) and 87 (drug concentration 1 μg/mL).

As to `CC(=NNC(=O)c1ccc(C(=O)N2CCN(C(C)C)CC2)s1)c1csc(-c2ccc(Cl)c(Cl)c2)c1O` [Synthetic Ex. 1, 5-(4-isopropylpiperazine-1-carbonyl)thiophene-2-carboxylic acid {1-[5-(3,4-dichlorophenyl)-4-hydroxythiophen-3-yl]ethylidene}hydrazide], the Megakaryocyte colony count (drug concentration 1 μg/mL) amounted to 154.

Under “drug concentration 1 μg/mL”, `CC(=NNC(=O)c1ccc(C(=O)N2CCOCC2)s1)c1csc(-c2ccc(Cl)c(Cl)c2)c1O.[K]` [Synthetic Ex. 2, 5-(morpholine-4-carbonyl)thiophene-2-carboxylic acid {1-[5-(3,4-dichlorophenyl)-4-hydroxythiophen-3-yl]ethylidene}hydrazide potassium salt] registered a Megakaryocyte colony count of 239.

For the compound `CCN(CC)C(=O)c1ccc(C(=O)NN=C(C)c2csc(-c3ccc(Cl)c(Cl)c3)c2O)s1.[K]` [Synthetic Ex. 3, 5-{1-[5-(3,4-dichlorophenyl)-4-hydroxythiophen-3-yl]ethylidenehydrazinocarbonyl}thiophene-2-carboxylic acid diethylamide potassium salt], under “drug concentration 1 μg/mL”, the Megakaryocyte colony count is recorded as 348.

Consider `CC(=NNC(=O)c1ccc(C(=O)N2CCCC2)s1)c1csc(-c2ccc(Cl)c(Cl)c2)c1O.[K]` [Synthetic Ex. 4, 5-(pyrrolidine-1-carbonyl)thiophene-2-carboxylic acid {1-[5-(3,4-dichlorophenyl)-4-hydroxythiophen-3-yl]ethylidene}hydrazide potassium salt], for which the Megakaryocyte colony count is recorded as 84 (drug concentration 0.1 μg/mL) and 148 (drug concentration 1 μg/mL).

Under “drug concentration 1 μg/mL”, `CC(=NNC(=O)c1ccc(C(=O)N(C)C)s1)c1csc(-c2ccc(Cl)c(Cl)c2)c1O.[K]` [Synthetic Ex. 5, 5-{1-[5-(3,4-dichlorophenyl)-4-hydroxythiophen-3-yl]ethylidenehydrazinocarbonyl}thiophene-2-carboxylic acid dimethylamide potassium salt] came in with a Megakaryocyte colony count of 274.

For `COCCNC(=O)c1ccc(C(=O)NN=C(C)c2csc(-c3ccc(Cl)c(Cl)c3)c2O)s1.[K]` [Synthetic Ex. 6, 5-{1-[5-(3,4-dichlorophenyl)-4-hydroxythiophen-3-yl]ethylidenehydrazinocarbonyl}thiophene-2-carboxylic acid 2-methoxyethylamide potassium salt], the Megakaryocyte colony count worked out at 115 (drug concentration 0.1 μg/mL) and 151 (drug concentration 1 μg/mL).

As to `CCN(CC)C(=O)c1ccc(C(=O)NN=C(C)c2csc(-c3ccc(C(F)(F)F)cc3)c2O)s1` [Synthetic Ex. 8, 5-{1-[5-(4-trifluoromethylphenyl)-4-hydroxythiophen-3-yl]ethylidenehydrazinocarbonyl}thiophene-2-carboxylic acid diethylamide], the Megakaryocyte colony count by setting is: (drug concentration 0.1 μg/mL) 147; (drug concentration 1 μg/mL) 227.

For `CC(=NNC(=O)c1ccc(C(=O)N2CCCC2)s1)c1csc(-c2ccc(C(F)(F)F)cc2)c1O.[K]` [Synthetic Ex. 10, 5-(pyrrolidine-1-carbonyl)thiophene-2-carboxylic acid {1-[5-(4-trifluoromethylphenyl)-4-hydroxythiophen-3-yl]ethylidene}hydrazide potassium salt], the Megakaryocyte colony count is, setting by setting: (drug concentration 0.1 μg/mL) 105; (drug concentration 1 μg/mL) 208.

For `CC(=NNC(=O)c1ccc(C(=O)N(C)Cc2ccccn2)s1)c1csc(-c2ccc(C(F)(F)F)cc2)c1O.[K]` [Synthetic Ex. 13, 5-{1-[5-(4-trifluoromethylphenyl)-4-hydroxythiophen-3-yl]ethylidenehydrazinocarbonyl}thiophene-2-carboxylic acid methyl-2-picolylamide potassium salt], the Megakaryocyte colony count (drug concentration 0.1 μg/mL) is 61.

In turn, `CC(=NNC(=O)c1ccc(C(=O)NCc2cccnc2)s1)c1csc(-c2ccc(Br)cc2)c1O` [Synthetic Ex. 17, 5-{1-[5-(4-bromophenyl)-4-hydroxythiophen-3-yl]ethylidenehydrazinocarbonyl}thiophene-2-carboxylic acid 3-picolylamide] returned a Megakaryocyte colony count (drug concentration 1 μg/mL) of 146.

Consider `CC(=NNC(=O)c1ccc(C(=O)NCc2ccncc2)s1)c1csc(-c2ccc(Br)cc2)c1O` [Synthetic Ex. 18, 5-{1-[5-(4-bromophenyl)-4-hydroxythiophen-3-yl]ethylidenehydrazinocarbonyl]thiophene-2-carboxylic acid 4-picolylamide], for which the Megakaryocyte colony count (drug concentration 1 μg/mL) was 125.

In turn, `CC(=NNC(=O)c1ccc(C(=O)NCc2ccco2)s1)c1csc(-c2ccc(Br)cc2)c1O` [Synthetic Ex. 19, 5-{1-[5-(4-bromophenyl)-4-hydroxythiophen-3-yl]ethylidenehydrazinocarbonyl}thiophene-2-carboxylic acid furan-2-ylmethylamide] showed a Megakaryocyte colony count (drug concentration 1 μg/mL) of 171.

As to `CNC(=O)c1ccc(C(=O)NN=C(C)c2csc(-c3ccc(Br)cc3)c2O)s1` [Synthetic Ex. 20, 5-{1-[5-(4-bromophenyl)-4-hydroxythiophen-3-yl]ethylidenehydrazinocarbonyl}thiophene-2-carboxylic acid methylamide], the Megakaryocyte colony count (drug concentration 1 μg/mL) was 185.

`CC(=NNC(=O)c1ccc(C(=O)NC(C)C)s1)c1csc(-c2ccc(Br)cc2)c1O` [Synthetic Ex. 21, 5-{1-[5-(4-bromophenyl)-4-hydroxythiophen-3-yl]ethylidenehydrazinocarbonyl}thiophene-2-carboxylic acid isopropylamide] had a Megakaryocyte colony count (drug concentration 0.1 μg/mL) of 85.

For the compound `C/C(=N\NC(=O)c1ccc(C(=O)NCc2ccccn2)s1)c1csc(-c2ccc(OC(F)(F)F)cc2)c1O` [Synthetic Ex. 22], the Megakaryocyte colony count (drug concentration 0.1 μg/mL) is listed as 96.

As for `CC(=NNC(=O)c1ccc(C(=O)NC(C)C)s1)c1csc(-c2ccc(C(F)(F)F)cc2)c1O` [Synthetic Ex. 23, 5-{1-[5-(4-trifluoromethylphenyl)-4-hydroxythiophen-3-yl]ethylidenehydrazinocarbonyl}thiophene-2-carboxylic acid isopropylamide], the Megakaryocyte colony count (drug concentration 1 μg/mL) is reported as 134.

Compound `C/C(=N\NC(=O)c1ccc(C(=O)NCc2ccncc2)s1)c1csc(-c2ccc(Cl)cc2)c1O` [Synthetic Ex. 24, 5-{1-5-[(4-chlorophenyl)-4-hydroxythiophen-3-yl]ethylidenehydrazinocarbonyl}thiophene-2-carboxylic acid 4-picolylamide] returned a Megakaryocyte colony count (drug concentration 1 μg/mL) of 164.

`CC(=NNC(=O)c1ccc(C(=O)NCc2ccccn2)s1)c1csc(-c2ccc(Cl)cc2)c1O` [Synthetic Ex. 25, 5-{1-[5-(4-chlorophenyl)-4-hydroxythiophen-3-yl]ethylidenehydrazinocarbonyl]thiophene-2-carboxylic acid 2-picolylamide] registered a Megakaryocyte colony count (drug concentration 1 μg/mL) of 118.

These data come from US7968542B2, “Thiophene compounds and thrombopoietin receptor activators” (Nissan Chemical Industries, Ltd., priority 2005, dated 2011).
